Biological target: T1, full-length MALT1 protein His-MALT1(1-824) (Homo sapiens, UniProt Q9UDY8)
T1 construct: full-length MALT1 protein His-MALT1(1-824); His (N); made in house; host or cells: baculovirus-infected insect cells
T1 sequence (Q9UDY8 1-824): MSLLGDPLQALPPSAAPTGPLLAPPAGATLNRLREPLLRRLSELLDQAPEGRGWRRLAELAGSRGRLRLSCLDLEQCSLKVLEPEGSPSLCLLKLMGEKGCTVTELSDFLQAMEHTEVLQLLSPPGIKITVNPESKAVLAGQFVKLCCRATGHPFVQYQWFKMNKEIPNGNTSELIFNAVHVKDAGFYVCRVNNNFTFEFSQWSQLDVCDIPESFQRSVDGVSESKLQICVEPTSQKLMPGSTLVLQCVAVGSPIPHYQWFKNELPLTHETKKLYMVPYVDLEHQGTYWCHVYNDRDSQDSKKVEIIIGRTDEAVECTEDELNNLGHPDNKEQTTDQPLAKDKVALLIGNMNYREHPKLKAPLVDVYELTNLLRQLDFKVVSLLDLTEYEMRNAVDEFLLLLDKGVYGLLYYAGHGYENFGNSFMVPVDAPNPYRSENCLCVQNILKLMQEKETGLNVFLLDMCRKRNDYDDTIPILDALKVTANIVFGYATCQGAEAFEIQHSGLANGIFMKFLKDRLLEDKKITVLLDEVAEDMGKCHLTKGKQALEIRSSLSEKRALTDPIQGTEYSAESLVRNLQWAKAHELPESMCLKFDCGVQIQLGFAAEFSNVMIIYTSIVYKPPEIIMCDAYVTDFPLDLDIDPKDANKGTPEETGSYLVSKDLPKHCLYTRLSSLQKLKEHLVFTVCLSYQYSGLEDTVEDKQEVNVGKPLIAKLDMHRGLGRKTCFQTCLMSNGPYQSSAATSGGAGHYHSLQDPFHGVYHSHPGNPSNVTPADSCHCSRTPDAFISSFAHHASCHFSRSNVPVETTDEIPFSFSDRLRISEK
Experiment: MALT1 protease assay (Ac-LRSR-AMC tetrapeptide substrate, fluorescence)
Assay type: biochemical
Settings: 1 nM MALT1, 25 μM Ac-LRSR-AMC, 2 h pre-incubation, 8 hr incubation at RT
Description: MALT1 protease activity was assessed in an in vitro assay using a tetrapeptide as substrate and full-length MALT1 protein His-MALT1(1-824) purified from baculovirus-infected insect cells.
The final assay buffer includes 1 nM of MALT1 full-length protein, 25 μM Ac-LRSR-AMC substrate, 50 mM Tris pH 7.5, 600 mM Sodium Citrate, 1 mM DTT, 1 mM EDTA, and 0.05% BSA in 384-well plate format using black microtiter square well plates (Optiplate 384-F, Perkin Elmer).
Test compounds were dissolved in 100% DMSO stock of 10 mM, with final DMSO concentration of 0.1%. Test compounds were pre-incubated with MALT1 protein for 2 h at room temperature. Substrate was added after the pre-incubation and fluorescence signal was measured using Envision at excitation 355 nm and emission 460 nm after 8 hr incubation at RT.
The fluorescence units were transformed to percentage of remaining activity by using the high control (HC, median of fluorescence signal from wells containing MALT1 protein, substrate, and DMSO) and low control (LC, median of fluorescence signal from wells with substrate only) with the formula below: […]
IC50 and Hill coefficients were obtained using Graph Pad Prism (Graph Pad software, Inc, USA) with non-linear regression analysis.

Row | IC50 [nM] | Structure (SMILES)
1 | ≥ 1000 | Cc1cc(NC(=O)[C@H]2C[C@@](C)(c3cnn(C)c3)c3c2cnc2cc(F)nn32)cnc1-n1nccn1 (single isomer, unassigned) [Example 58]
2 | ≥ 1000 | Cn1nccc1[C@]1(C)C[C@@H](C(=O)Nc2cnc(-n3nccn3)c(Cl)c2)c2cnc3cc(F)nn3c21 (single isomer, unassigned) [Example 65]
3 | 100 to 1000 | C[C@]1(c2ccn(C(F)F)n2)C[C@@H](C(=O)Nc2cnc(-n3nccn3)c(Cl)c2)c2cnc3cc(F)nn3c21 (single isomer, unassigned) [Example 91]
4 | 100 to 1000 | Cn1cc([C@@]2(C)C[C@@H](C(=O)Nc3cnc(-n4nccn4)c(Cl)c3)c3cnc4c(F)c(F)nn4c32)cn1 (single isomer, unassigned) [Example 15]
5 | 10 to 100 | C[C@]1(c2ccn(C(F)F)n2)C[C@H](C(=O)Nc2ccc(-c3ncccn3)c(Cl)c2)c2cnc3cc(F)nn3c21 (single isomer, unassigned) [Example 189]
6 | ≥ 1000 | CC1(c2ccn(C(F)F)n2)CC(C(=O)Nc2cnc(-c3ncccn3)c(C(F)F)c2)c2cnc3cc(F)nn3c21 (single isomer, unassigned) [Example 194]
7 | 100 to 1000 | Cn1cc([C@@]2(C)C[C@H](C(=O)Nc3cnc(-n4nccn4)c(Cl)c3)c3cnc4c(Cl)c(F)nn4c32)cn1 (single isomer, unassigned) [Example 16]
8 | 10 to 100 | Cn1nccc1[C@@]1(C)C[C@H](C(=O)Nc2cnc(-n3nccn3)c(Cl)c2)c2cnc3cc(F)nn3c21 (single isomer, unassigned) [Example 64]
9 | ≥ 1000 | C[C@@]1(c2ccn(C(F)F)n2)C[C@@H](C(=O)Nc2cnc(-n3nccn3)c(C(F)(F)F)c2)c2cnc3cc(F)nn3c21 (single isomer, unassigned) [Example 125]
10 | ≥ 1000 | Cn1ccc([C@]2(C)C[C@@H](C(=O)Nc3cnc(-n4nccn4)c(C(F)(F)F)c3)c3cnc4cc(F)nn4c32)n1 (single isomer, unassigned) [Example 145]
11 | 100 to 1000 | C[C@]1(c2cnn(CC3CC3)c2)C[C@@H](C(=O)Nc2cnc(-n3nccn3)c(Cl)c2)c2cnc3cc(F)nn3c21 (single isomer, unassigned) [Example 101]
12 | < 10 | CC(F)(F)n1ccc([C@@]2(C)C[C@H](C(=O)Nc3cnc(-c4ncccn4)c(C(F)(F)F)c3)c3cnc4cc(F)nn4c32)n1 (single isomer, unassigned) [Example 164, (trans)-8-(1-(1,1-difluoroethyl)-1H-pyrazol-3-yl)-2-fluoro-8-methyl-N-(6-(pyrimidin-2-yl)-5-(trifluoromethyl)pyridin-3-yl)-7,8-dihydro-6H-cyclopenta[e]pyrazolo[1,5-a]pyrimidine-6-carboxamide]
13 | 100 to 1000 | C[C@]1(c2ccn(C(F)F)n2)C[C@@H](C(=O)Nc2ccc(-c3ncccn3)c(Cl)c2)c2cnc3cc(F)nn3c21 (single isomer, unassigned) [Example 192]
14 | 10 to 100 | C[C@]1(c2cnn(C(F)F)c2)C[C@H](C(=O)Nc2cnc(-c3ncc(F)cn3)c(Cl)c2)c2cnc3cc(F)nn3c21 [Example 134, (6S,8R)—N-(5-chloro-6-(5-fluoropyrimidin-2-yl)pyridin-3-yl)-8-(1-(difluoromethyl)-1H-pyrazol-4-yl)-2-fluoro-8-methyl-7,8-dihydro-6H-cyclopenta[e]pyrazolo[1,5-a]pyrimidine-6-carboxamide]
15 | ≥ 1000 | Cc1cc(NC(=O)[C@@H]2C[C@](C)(c3cnn(C)c3)c3c2cnc2cc(F)nn32)cnc1-n1nccn1 (single isomer, unassigned) [Example 59]
16 | 100 to 1000 | Cn1cc([C@]2(C)C[C@H](C(=O)Nc3cnc(OC(F)F)c(C#N)c3)c3cnc4cc(F)nn4c32)cn1 (single isomer, unassigned) [Example 42]
17 | 10 to 100 | C[C@@]1(c2cnn(CC3CC3)c2)C[C@H](C(=O)Nc2cnc(-n3nccn3)c(Cl)c2)c2cnc3cc(F)nn3c21 (single isomer, unassigned) [Example 100]

Row | IC50 [nM] | Structure (SMILES)
18 | ≥ 1000 | Cn1cc([C@]2(C)C[C@H](C(=O)Nc3cnc(-n4nccn4)c(Cl)c3)c3cnc4c(Cl)c(F)nn4c32)cn1 (single isomer, unassigned) [Example 18, cis-3-chloro-N-(5-chloro-6-(2H-1,2,3-triazol-2-yl)pyridin-3-yl)-2-fluoro-8-methyl-8-(1-methyl-1H-pyrazol-4-yl)-7,8-dihydro-6H-cyclopenta[e]pyrazolo[1,5-a]pyrimidine-6-carboxamide]
19 | 100 to 1000 | C[C@@]1(c2cnn(C(F)F)c2)C[C@H](C(=O)Nc2cnc(-c3ncccn3)c(C(F)(F)F)c2)c2cnc3cc(F)nn3c21 (single isomer, unassigned) [Example 150]
20 | ≥ 1000 | Cn1nccc1[C@@]1(C)C[C@@H](C(=O)Nc2cnc(-n3nccn3)c(Cl)c2)c2cnc3cc(F)nn3c21 (single isomer, unassigned) [Example 67]
21 | 100 to 1000 | C[C@]1(c2cnn(C(F)F)c2)C[C@@H](C(=O)Nc2cnc(OC(F)F)c(C#N)c2)c2cnc3cc(F)nn3c21 (single isomer, unassigned) [Example 95]
22 | ≥ 1000 | C[C@@]1(c2cnn(C(F)F)c2)C[C@@H](C(=O)Nc2cnc(-n3nccn3)c(Cl)c2)c2cnc3cc(F)nn3c21 (single isomer, unassigned) [Example 25]
23 | ≥ 1000 | C[C@@]1(c2cnn(C(F)F)c2)C[C@@H](C(=O)Nc2cnc(-c3ncncc3F)c(Cl)c2)c2cnc3cc(F)nn3c21 (single isomer, unassigned) [Example 157]
24 | 10 to 100 | C[C@]1(c2cnn(C(F)F)c2)C[C@H](C(=O)Nc2cnc(-c3ncncc3F)c(C(F)(F)F)c2)c2cnc3cc(F)nn3c21 (single isomer, unassigned) [Example 118]
25 | 100 to 1000 | C[C@]1(c2ccn(C(F)F)n2)C[C@@H](C(=O)Nc2cnc(-c3ncccn3)c(C(F)(F)F)c2)c2cnc3cc(Cl)nn3c21 (single isomer, unassigned) [Example 174]
26 | 100 to 1000 | Cn1ccc([C@]2(C)C[C@H](C(=O)Nc3cnc(-n4nccn4)c(Cl)c3)c3cnc4cc(Cl)nn4c32)n1 (single isomer, unassigned) [Example 78]
27 | 100 to 1000 | CC(F)(F)n1ccc([C@]2(C)C[C@H](C(=O)Nc3cnc(-c4ncccn4)c(Cl)c3)c3cnc4cc(F)nn4c32)n1 (racemic) [Example 170, (cis)-N-(5-chloro-6-(pyrimidin-2-yl)pyridin-3-yl)-8-(1-(1,1-difluoroethyl)-1H-pyrazol-3-yl)-2-fluoro-8-methyl-7,8-dihydro-6H-cyclopenta[e]pyrazolo[1,5-a]pyrimidine-6-carboxamide]
28 | ≥ 1000 | COc1cc(NC(=O)[C@@H]2C[C@](C)(c3ccn(C(F)F)n3)c3c2cnc2cc(F)nn32)cnc1-c1ncccn1 (single isomer, unassigned) [Example 182]
29 | 100 to 1000 | C[C@@]1(c2cnn(C(F)F)n2)C[C@@H](C(=O)Nc2cnc(-n3nccn3)c(Cl)c2)c2cnc3cc(F)nn3c21 (single isomer, unassigned) [Example 178]
30 | 10 to 100 | C[C@]1(c2cnn(C(F)F)c2)C[C@H](C(=O)Nc2cnc(-c3ncncc3F)c(Cl)c2)c2cnc3cc(F)nn3c21 (single isomer, unassigned) [Example 156]
31 | ≥ 1000 | C[C@@]1(c2cnn(CC3CC3)c2)C[C@@H](C(=O)Nc2cnc(-n3nccn3)c(Cl)c2)c2cnc3cc(F)nn3c21 (single isomer, unassigned) [Example 99]
32 | < 10 | C[C@]1(c2cnn(C(F)F)c2)C[C@H](C(=O)Nc2cnc(-n3nccn3)c(C(F)(F)F)c2)c2cnc3cc(F)nn3c21 (single isomer, unassigned) [Example 80]
33 | ≥ 1000 | Cn1cc([C@]2(C)C[C@@H](C(=O)Nc3cnc(-n4nccn4)c(Cl)c3)c3cnc4c(Cl)c(F)nn4c32)cn1 (single isomer, unassigned) [Example 17]
34 | 10 to 100 | Cn1cc([C@@]2(C)C[C@H](C(=O)Nc3ccnc(C(F)(F)F)c3)c3cnc4cc(Cl)nn4c32)cn1 (single isomer, unassigned) [Example 44]

— patent US20260049085A1, “CYCLIC COMPOUNDS AND METHODS OF USING SAME” (SCHRÖDINGER, INC., priority 2022, published 2026)
